From patent US8492341B2, “Amyloid-β binding peptides” (Alzyme Pty Ltd., priority 2006, dated 2013)

Columns and labels:
[1] = parameters: species or system mice (129×1 strain); details: mouse, in vivo
Description: Another essential requirement of drug development is the ability of the peptide to cross the BBB and impact on targeted tissue. To measure the ability of 15merTNP and peptide analogue MP2 to cross the BBB, intracerebroventricular (i.c.v) delivery was assessed. The use of i.c.v injections on animal models allows for high doses to be delivered straight to the ventricular spaces where it can cross the parenchyma layer to the brain matter.
For i.c.v injections, control mice (129×1 strain) were anesthetized with intraperitoneal ketamine/xylazine at a dose of 10 ml/kg and then administered with 200 μg of either peptide (90 nmol). Both radioactive (^3H-labelled; hot) and non-radioactive (cold) was used to allow physiological doses of peptide to be delivered.
To determine whether the peptides had effectively penetrated into the brain parenchyma, a capillary depletion experiment was performed. After 25 min post injection the animal was sacrificed and the brain removed. This was homogenized and centrifuged for 10 min at 13000 rpm at 4° C. resulting in a supernatant containing predominately radioactivity from the cortex and a pellet with radioactivity from the capillaries and endothelium. A comparison of radioactivity in each sample was conducted to assess percentage of peptide movement into the cortex. The amount of radioactivity in the capillary pellet of mice that were perfused and not perfused with saline solution was compared to determine the percentage of peptide bound to the luminal surface of the capillaries and sequestered by brain endothelial cells.
A detailed necropsy was performed on each animal following perfusion to thoroughly assess peptide movement throughout peripheral organs, central nervous tissue and blood. […] Thus the concentration of labelled tritium could be measured per mass of sample and using this and the known ratio of non-labelled peptide present, the concentration of total peptide could be determined.
The pharmacokinetic profile of peptide analogue MP2 over four time points, post i.c.v injection into the CNS was determined. […]

[2] = test system: human Aβ42; assay: MTS cell viability assay of MP2 analogues, cells treated with human Aβ42 (20 μM); type: cell-based; details: peptide 80-400 μM
Description: FIG. 7 illustrates the effect of various peptide analogues of the peptide analogue of SEQ ID NO:2 on cell viability associated with human Aβ1-42. Cells were treated with human Aβ42 peptide (20 μM) in the absence or presence of increasing doses of MP2, MP4, MP5 or MP6 (n=6, for each peptide). Cell viability was assessed by the MTS assay.
Cells were treated with human Aβ42 peptide (20 μM) in the absence or presence of increasing doses of MP2, MP4, MP5 or MP6 (n=6, for each peptide). Cell viability was assessed by the MTS assay.

[3] = In vitro peptide stability in 10% rodent brain homogenate; type: in vitro ADME, rat
Description: For the peptide stability assay in vitro, both 15merTNP and peptide analogue MP2 were incubated separately with fresh 10% rodent brain homogenate to model degradation in tissues. In order to create a physiological dose of peptide in the in vitro assay, both radioactive (^3H-labelled; hot) and non-radioactive (cold) peptides were combined in a set ratio. Cold peptide was added at a dose of […] per ml of 10% brain homogenate. Hot peptide was added at a dose of 250 μCi per ml 10% brain homogenate. Following the addition of hot and cold peptide; the homogenate was vortexed and incubated for different time points. The reaction was stopped by adding complete protease inhibitor cocktail and the samples analysed.
The biological stability of the peptides was evaluated by incubating them (90 nmol) in fresh 10% rodent brain homogenate for different times at 37° C. The amount of intact peptide was estimated by running the supernatant of the homogenate on a 16% Tricine gel to separate peptide that had not had its amino acid sequence degraded. FIG. 3 illustrates the relative stability of 15merTNP and peptide analogue MP2 over two hours run on a 16% Tricine gel from time 0-120 min with samples run in duplicate. The values correspond to the in vitro half-life, which is defined as the time needed for 50% degradation of the peptide.

[4] = target: Aβ (Homo sapiens, UniProt P05067); assay: Copper-induced Aβ oligomer generation (SDS-PAGE, WO2 immunoblot); type: biochemical; details: Aβ 5 uM, Cu+2 25 μM, 0-1000 μM peptide, 37 C, 24 hours; vs reverse peptide control
Description: Incubation of Aβ with copper generates cross-linked oligomeric species (Atwood et al., 2000: Cell Mol Biol, 46: 777-783; Atwood et al., 2004: Biochemistry, 43: 560-568). In this experiment, Aβ (5 uM) is incubated with Cu+2 (25 μM) and 0-1000 μM of the modified peptides at 37 C for 24 hours. After the incubation period, 20 ng is loaded onto an SDS-PAGE gel and immunoblotted with WO2 antibody. Compared to the reverse peptide control, all the modified peptides inhibited the generation of Aβ oligomers at various concentration.

Chain of Aβ (P05067 672-713 limits assumed): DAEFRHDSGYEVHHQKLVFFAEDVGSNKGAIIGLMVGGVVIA

Ac-NRTPQMLKR-NH2 [MP2, Ac-Asn-Arg-Thr-Pro-Gln-Met-Leu-Lys-Arg-NH2]
crossing of the blood brain barrier [1]: poorly | peptide removed from the CNS [1]: 99% | cell viability following treatment with human Aβ42 [2]: significantly increased | Stability in rat brain homogenate (in vitro half-life) ([3]; 10% brain homogenate, 37° C., listed as Peptide analogue MP2): >24 h | stability relative to 15merTNP ([3]; 10% rodent brain homogenate, 24 hour time period): significantly more stable | half-life at 2.5 mmol per ml ([3]; rat, fresh 10% brain homogenate, 10% brain homogenate, 37° C.): > 24 h | inhibition of Aβ oligomer formation [4]: most potent
